Earlier results in US20050186288A1, “Compositions and methods for the prophylaxis and treatment of aphthous ulcers and herpes simplex lesions” (Chiou Consulting Inc., priority 2002, published 2005).

System: herpes infection (wound or ulcer)
Details: salt alone

| Substance | effect in treating herpes infection (wound or ulcer) |
| --- | --- |
| magnesium pentosan polysulfate | ineffective |
| zinc pentosan polysulfate | ineffective |
